Data from paper PMC12655351, “Synthesis and Anticancer Activity Evaluation of New 5-((5-Nitrofuran-2-yl)allylidene)-2-thioxo-4-thiazolidinones” (Pharmaceuticals, 2025).

Legend:
HCC-2998 = experiment: cells; settings: Homo sapiens, HCC 2998, 48 h
SF-539 = experiment: cells; settings: Homo sapiens, SF-539, 48 h
COLO 205 = experiment: cells; settings: Homo sapiens, COLO 205, 48 h; for CC50: read-out: LC50, COLO 205, 48 h
NCI-H522 = experiment: NCI-60 SRB screen; settings: for GI50 / CC50: Homo sapiens; for GI50 / CC50 / TGI: NCI-H522, 48 h; for CC50: read-out: LC50, NCI-H522, 48 h
MDA-MB-231/ATCC = experiment: cells; settings: Homo sapiens, MDA-MB-231, 48 h; for GI50: MDA-MB-231/ATCC, 48 h; for CC50: read-out: LC50, MDA-MB-231/ATCC, 48 h
[1] = tested on: caspase-3 in MDA-MB-231 cells; experiment: caspase-3 ELISA; assay type: cell-based, human; settings: MDA-MB-231, 10 μM (highest concentration), 24 h
Experimental: (§1) To confirm the activity of the caspase pathway, an effector caspase-3 was assayed on MCF-7 and MDA-MB-231 cell lines after 24 h of treatment using the ELISA method. Novel 4-thiazolidinone derivatives were tested in concentrations of 1 and 5 μM for the MCF-7 cell line and 5 and 10 μM for the MDA-MB-231 cell line.
(§2) Using a SimpleStep ELISA kit (Abcam, Cambridge, UK), we determined the levels of cytochrome C and caspase-3 in cells’ lysates with 2b, 12b, and 14b (1 and 5 μM for the MCF-7 cell line and 5 and 10 μM for the MDA-MB-231) and doxorubicin in concentrations of 1 and 5 μM for both lines after 24 h incubation. Assays were performed according to the manufacturer’s protocols.

MCF-7 cell line = experiment: Annexin V-FITC/propidium iodide flow cytometry; assay type: cell-based, human; settings: 24 h
Experimental: The three chosen compounds, 2b, 12b, and 14b, were tested using Annexin V-FITC and propidium iodide to assess their effects on apoptosis induction on MCF-7 and MDA-MB-231 cell lines. To evaluate the population of cells, four states were determined: unstained cells (alive), cells stained with propidium iodide (necrotic), cells stained with FITC-labeled Annexin V (early apoptotic), and cells stained with both Annexin V and propidium iodide (late apoptotic). […] In a concentration of 5 μM the values were 8.5% and 12.2%, respectively. For 12b in a concentration equal to 1 μM, the obtained results showcased 7.2% of cells in early and late apoptosis and 0.7% in a state of necrosis. For 5 μM concentration results were 23.7% and 11.5%, respectively.
(§3) To conduct induction of apoptosis on MCF-7 and MDA-MB-231 cell lines, three compounds with the lowest IC50 values were selected (2b, 12b, 14b). The concentration of these compounds depended on the cell line. For MCF-7 cell line concentrations of 1 and 5 μM were used, while for MDA-MB-231 cell line concentrations were 5 and 10 μM. For both cell lines doxorubicin was used as a reference compound in 1 and 5 μM concentrations. This study was evaluated using a flow cytometer (BD FACSCanto II, Becton Dickinson Biosciences Systems, San Jose, CA, USA) and Annexin V binding Apoptosis Detection Kit II (BD Biosciences, San Diego, CA, USA). Cells were seeded in 6-well culture plates cultured in accordance with the previously described methodology. The medium was removed from wells and then cells were washed with PBS. A cell suspension was prepared in the binding buffer provided in the kit at a concentration of 1 × 10^6 cells/mL. A total of 100 µL of cell suspension was collected from each sample and transferred to the tubes. Afterwards, 5 µL of Annexin V-FITC and 4 µL of propidium iodide (PI) were added to each tube and then the tubes were incubated in the dark for 15 min at room temperature. After incubation, the suspension was supplemented to 300 µL with a binding buffer and immediately read in a BD FACSCanto II flow cytometer (Becton Dickinson Biosciences, San Jose, CA, USA), where 10,000 events per sample were measured. Results were analyzed using FACSDiva Software Version 6.1.3. (BD Biosciences Systems, San Jose, CA, USA).

MDA-MB-231 cell line = experiment: Annexin V-FITC/propidium iodide flow cytometry; assay type: cell-based, human; settings: 24 h
Experimental: Similarly to Figure 3, Figure 4 showcases the flow cytometric assessment of compounds effects on apoptosis induction on the MDA-MB-231 cell line after 24 h of incubation with tested structures. For this cell line, based on previous results, higher concentrations of tested compounds were chosen: 5 and 10 μM. […] At the same time, compound 12b showcased 7.3% of early and late apoptotic cells, 1.2% of necrotic cells in 5 μM concentration, and 13.8% and 22.3% in 10 μM concentration, consequently.
as §3

NCI-H322M = settings: human, 48 h
NCI-H266 = settings: human, 48 h
IGROV1 = settings: human, 48 h
SK-MEL-2 = settings: human, 48 h
ACHN = settings: human, 48 h
SNB-19 = settings: human, 48 h
EKVX = settings: human, 48 h
SNB-75 = settings: human, 48 h
SF-295 = settings: human, 48 h
caspase-3 in MCF-7 cells = experiment: caspase-3 ELISA; assay type: cell-based, human; settings: MCF-7, 1 μM, 24 h
Experimental: as §1, §2

M14 = settings: human, 48 h
HOP-92 = settings: human, 48 h

SMILES | GI50 (HCC-2998) [µM] | GI50 (SF-539) [µM] | GI50 (COLO 205) [µM] | CC50 (COLO 205) [µM] | GI50 (NCI-H522) [µM] | CC50 (NCI-H522) [µM] | TGI (NCI-H522) [µM] | GI50 (MDA-MB-231/ATCC) [µM] | CC50 (MDA-MB-231/ATCC) [µM] | change of caspase-3 concentration [1] | cells in late and early apoptosis combined (MCF-7 cell line; MCF-7, 1 μM) [%] | necrotic cell population (MCF-7 cell line; MCF-7, 1 μM) [%] | cells in late and early apoptosis combined (MCF-7 cell line; MCF-7, 5 μM) [%] | necrotic cell population (MCF-7 cell line; MCF-7, 5 μM) [%] | combined apoptotic cells (MDA-MB-231 cell line; MDA-MB-231, 5 μM) [%] | necrotic cells (MDA-MB-231 cell line; MDA-MB-231, 5 μM) [%] | combined apoptotic cells (MDA-MB-231 cell line; MDA-MB-231, 10 μM) [%] | necrotic cells (MDA-MB-231 cell line; MDA-MB-231, 10 μM) [%] | other results
CCCCC(C(=O)O)N1C(=O)/C(=C/C=C/c2ccc([N+](=O)[O-])o2)SC1=S (stereo not drawn) [6b, 2-((Z)-5-((E)-3-(5-nitrofuran-2-yl)allylidene)-4-oxo-2-thioxothiazolidin-3-yl)hexanoic acid] | 1.83 | 1.89 | 2.02 | 6.65 | 1.74 | 6.78 | 3.43 | 2.27 | 8.73 |  |  |  |  |  |  |  |  |  | 
O=C(O)C(c1ccccc1)N1C(=O)/C(=C/C=C/c2ccc([N+](=O)[O-])o2)SC1=S (stereo not drawn) [9b, 2-((Z)-5-((E)-3-(5-Nitrofuran-2-yl)allylidene)-4-oxo-2-thioxothiazolidin-3-yl)-2-phenylacetic acid] | 15.6 | 12 | 6.65 | 60.4 | 4.09 | 64.6 | 19.1 | 10.8 | 54.2 |  |  |  |  |  |  |  |  |  | growth GP (NCI-H522; NCI-H522, 10 μM, 48 h): -88.21%
CC(C)C(C(=O)O)N1C(=O)/C(=C/C=C/c2ccc([N+](=O)[O-])o2)SC1=S (stereo not drawn) [5b, 3-Methyl-2-((Z)-5-((E)-3-(5-nitrofuran-2-yl)allylidene)-4-oxo-2-thioxothiazolidin-3-yl)butanoic acid] | 1.72 | 1.44 | 1.33 | 5.83 | 1.12 | 5.69 | 2.53 | 1.56 | 5.9 |  |  |  |  |  |  |  |  |  | 
O=C(O)CCN1C(=O)/C(=C/C=C/c2ccc([N+](=O)[O-])o2)SC1=S [12b, 3-((Z)-5-((E)-3-(5-Nitrofuran-2-yl)allylidene)-4-oxo-2-thioxothiazolidin-3-yl)propanoic acid] |  | 1.66 |  |  | 1.1 | 5.52 | 2.46 | 1.7 | 6.15 | significant increase | 7.2 | 0.7 | 23.7 | 11.5 | 7.3 | 1.2 | 13.8 | 22.3 | 
CC(C(=O)O)N1C(=O)/C(=C/C=C/c2ccc([N+](=O)[O-])o2)SC1=S (stereo not drawn) [2b, 2-((Z)-5-((E)-3-(5-Nitrofuran-2-yl)allylidene)-4-oxo-2-thioxothiazolidin-3-yl)propanoic acid] |  |  |  |  |  |  |  |  |  | slight increase | 7.7 | 0.7 | 8.5 | 12.2 | 7.8 | 6.6 | 7.5 | 44 | 
CCCC(C(=O)O)N1C(=O)/C(=C/C=C/c2ccc([N+](=O)[O-])o2)SC1=S (stereo not drawn) [4b, 2-((Z)-5-((E)-3-(5-Nitrofuran-2-yl)allylidene)-4-oxo-2-thioxothiazolidin-3-yl)pentanoic acid] | 1.83 | 2.12 | 1.95 | 6.66 | 1.7 | 6.48 | 3.32 | 2.21 | 8.33 |  |  |  |  |  |  |  |  |  | 
O=C(O)CCCN1C(=O)/C(=C/C=C/c2ccc([N+](=O)[O-])o2)SC1=S [13b, 4-((Z)-5-((E)-3-(5-Nitrofuran-2-yl)allylidene)-4-oxo-2-thioxothiazolidin-3-yl)butanoic acid] |  |  |  |  |  |  |  |  |  |  |  |  |  |  |  |  |  |  | CC50 (NCI-H322M): 22.8 µM; CC50 (NCI-H266): > 100 µM; CC50 (IGROV1): 7.77 µM; CC50 (SK-MEL-2): 4.2 µM; CC50 (ACHN): 3.72 µM; CC50 (SNB-19): 5.5 µM; CC50 (EKVX): 6.05 µM; CC50 (SNB-75): 5.49 µM; CC50 (SF-295): 5.08 µM
O=C(O)CCCCCN1C(=O)/C(=C/C=C/c2ccc([N+](=O)[O-])o2)SC1=S [14b, 6-((Z)-5-((E)-3-(5-nitrofuran-2-yl)allylidene)-4-oxo-2-thioxothiazolidin-3-yl)hexanoic acid] | 1.78 |  | 1.56 | 6.05 |  |  |  |  |  | at least two times more | 6.9 | 0.6 | 29.2 | 11.7 | 5.7 | 1.4 | 28.8 | 42.6 | CC50 (NCI-H322M): 6.92 µM; CC50 (NCI-H266): 96.3 µM; CC50 (SK-MEL-2): 6.87 µM; CC50 (ACHN): 5 µM; CC50 (SNB-19): 6.67 µM; change of caspase-3 concentration (caspase-3 in MCF-7 cells): statistically significant result; CC50 (EKVX): 7.52 µM; CC50 (SNB-75): 4.03 µM; CC50 (M14): 3.23 µM; CC50 (SF-295): 6.61 µM; CC50 (HOP-92): 5.84 µM
